Measured values as given in US9758537B2 (Achillion Pharmaceuticals, Inc., priority 2014, dated 2017).

Molecular target: Human factor D (Homo sapiens (Human), UniProt P00746)
Assay: Human Factor D Assay
Format: biochemical
Details: human factor D 80 nM, substrate Z-L-Lys-SBzl, DTNB, OD405
Method in brief: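 Serum-purified human factor D (80 nM final) preincubated with compound 5 min at room temperature in 50 mM Tris, 1M NaCl, pH 7.5. Z-L-Lys-SBzl and DTNB added at 10 μM final each; OD405 followed kinetically over 30 min. IC50 by non-linear regression of percent inhibition.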

Sequence of Human factor D (P00746 26-253): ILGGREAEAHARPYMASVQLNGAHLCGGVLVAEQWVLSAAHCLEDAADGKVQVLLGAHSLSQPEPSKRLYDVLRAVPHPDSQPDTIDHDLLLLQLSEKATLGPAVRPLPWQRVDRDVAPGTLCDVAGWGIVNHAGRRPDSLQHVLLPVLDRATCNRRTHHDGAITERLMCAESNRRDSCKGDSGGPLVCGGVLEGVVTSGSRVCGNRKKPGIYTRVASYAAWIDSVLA

Row | IC50 [µM] | Compound
1 | < 1 | NS(=O)(=O)c1cn(CC(=O)N2C[C@H](F)C[C@H]2C(=O)NCc2cccc(Cl)c2F)c2ccccc12 [Compound 76, (2S,4R)-N-(3-chloro-2-fluorobenzyl)-4-fluoro-1-(2-(3-sulfamoyl-1H-indol-1-yl)acetyl)pyrrolidine-2-carboxamide]
2 | > 10 | CC(=O)c1cn(C(C)(C)C(=O)N2C[C@H](F)C[C@H]2C(=O)NCc2cccc(Cl)c2F)c2ccccc12 [Compound 56]
3 | > 10 | CC(=O)n1cc(NC(=O)[C@H]2CCCN2C(=O)Nc2cccc(OC(F)(F)F)c2F)c2ccccc21 [Compound 16, (R)-N2-(1-acetyl-1H-indol-3-yl)-N1-(2-fluoro-3-(trifluoromethoxy)phenyl)pyrrolidine-1,2-dicarboxamide]
4 | > 10 | NC(=O)n1cc(NC(=O)N2C[C@H](F)C[C@H]2Cn2cc(-c3ccc(F)cc3)nn2)c2ccccc21 [Compound 28, 3-((2S,4R)-4-fluoro-2-((4-(4-fluorophenyl)-1H-1,2,3-triazol-1-yl)methyl)pyrrolidine-1-carboxamido)-1H-indole-1-carboxamide]
5 | > 10 | CCOC(=O)CC(=O)N1CCc2c(n(CC(=O)N3C[C@H](F)C[C@H]3C(=O)NCc3cccc(Cl)c3F)c3ccccc23)C1 [Compound 70, ethyl 3-(9-(2-((2S,4R)-2-(3-chloro-2-fluorobenzylcarbamoyl)-4-fluoropyrrolidin-1-yl)-2-oxoethyl)-3,4-dihydro-1H-pyrido[3,4-b]indol-2(9H)-yl)-3-oxopropanoate]

Row | Compound | IC50 [µM]
6 | CC(=O)c1cn(CC(=O)N2C[C@H](F)C[C@H]2C(=O)Nc2cccc(-c3ccccc3Cl)c2F)c2c(C#N)cccc12 [Compound 79, (2S,4R)-1-(2-(3-acetyl-7-cyano-1H-indol-1-yl)acetyl)-N-(2′-chloro-2-fluorobiphenyl-3-yl)-4-fluoropyrrolidine-2-carboxamide] | < 1
7 | CC(=O)c1cn(CC(=O)N2[C@H](C(=O)NCc3cccc(Cl)c3F)C[C@@H]3CCCC[C@@H]32)c2ccccc12 [Compound 1, (2S,3aS,7aS)-1-(2-(3-acetyl-1H-indol-1-yl)acetyl)-N-(3-chloro-2-fluorobenzyl)octahydro-1H-indole-2-carboxamide] | < 1
8 | CC(=O)c1cn(CC(=O)N2C[C@H](F)C[C@H]2C(=O)Nc2cccc(Br)n2)c2ccc(C3(NC(=O)OC(C)(C)C)CC3)cc12 [Compound 123, tert-butyl 1-(3-acetyl-1-(2-((2S,4R)-2-(6-bromopyridin-2-ylcarbamoyl)-4-fluoropyrrolidin-1-yl)-2-oxoethyl)-1H-indol-5-yl)cyclopropylcarbamate] | < 1
